Data taken from US20060167110A1 (priority 1995, published 2006).
Several values for one entry are separate records, joined by “and”; a condition that tells them apart may be missing. Equal entries are not always repeated.

Columns and labels:
[1] = tested on: rat embryonic mesencephalic cells; assay: [3H]dopamine uptake, medium change (glutamate receptor dependent) model of cell death
Method: Preparations are then added to 10 ml Ecoscint (National Diagnostics) and counted in a scintillation spectrometer.
(§3) In these experiments, cells were plated and allowed to stabilize for several days.

[2] = tested on: cerebral infarction; conditions: given orally; patients with subarachnoid hemorrhage and cerebral vasospasm; cited from earlier work
[3] = molecular target: T1, MAO-B (Cavia porcellus, UniProt P58028); assay: In vivo brain MAO-B inhibition in guinea pig hippocampus after 5 daily s.c. doses; conditions: preliminary studies
T1 construct: MAO-B (^14C-phenylethylamine) by human platelets and guinea pig hippocampal homogenates; from tissue; host or cells: guinea pig hippocampal homogenates
T1 sequence (P58028 1-520): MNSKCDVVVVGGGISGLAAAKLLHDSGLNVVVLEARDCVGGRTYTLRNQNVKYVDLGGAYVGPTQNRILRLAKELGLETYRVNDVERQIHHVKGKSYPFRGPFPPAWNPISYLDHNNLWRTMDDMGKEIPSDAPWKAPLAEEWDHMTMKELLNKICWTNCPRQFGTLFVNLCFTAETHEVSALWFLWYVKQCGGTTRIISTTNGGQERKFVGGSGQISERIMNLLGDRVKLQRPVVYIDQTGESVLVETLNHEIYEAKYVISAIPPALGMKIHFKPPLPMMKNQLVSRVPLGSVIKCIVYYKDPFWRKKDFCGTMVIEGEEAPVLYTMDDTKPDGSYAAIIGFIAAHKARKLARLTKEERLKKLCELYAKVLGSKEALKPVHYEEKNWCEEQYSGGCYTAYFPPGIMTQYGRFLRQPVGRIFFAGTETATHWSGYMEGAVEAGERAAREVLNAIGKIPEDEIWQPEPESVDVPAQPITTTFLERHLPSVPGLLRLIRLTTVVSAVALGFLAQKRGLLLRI
Method: FIG. 20: In vivo MAO-B Inhibition in Guinea Pig Hippocampus. […] Animals were then sacrificed and the MAO-B activity in the hippocampus portion of the brain was determined. […] The plots were used to estimate the ID50 dosage for each agent.
Each enantiomer of DMS was administered in vivo by subcutaneous injection once a day for five consecutive days, and inhibition of brain MAO-B activity was then determined.

[4] = molecular target: T1, MAO-B; assay: MAO-B inhibition in guinea pig hippocampal homogenates in vitro; format: biochemical; conditions: for IC50: IC50 Values for the Inhibition of MAO-B, Guinea Pig Hippocampal Cortex; for reduction in potency compared to selegiline, MAO-B, Guinea Pig Hippocampal Cortex: figure in parentheses
Description: (§1) Human platelet MAO is comprised exclusively of the type-B isoform of the enzyme. […] The present study also examined the two enantiomers of DMS for inhibitory activity with respect to the MAO-A and MAO-B in guinea pig hippocampal tissue. Guinea pig brain tissue is an excellent animal model for studying brain dopamine metabolism, the enzyme kinetics of the multiple forms of MAO and the inhibitory properties of novel agents that interact with these enzymes. The multiple forms of MAO in this animal species show similar kinetic properties to those found in human brain tissue. Finally, the test agents were administered to guinea pigs and the extent to which they might act as inhibitors of brain MAO in vivo was assessed.
(§2) In vitro: The test system utilized the in vitro conversion of specific substrates of MAO-A (^14C-serotonin) in guinea pig hippocampal homogenates or MAO-B (^14C-phenylethylamine) by human platelets and guinea pig hippocampal homogenates. […] A percent inhibition was calculated from these values.

[5] = tested on: cultured rat mesencephalic cells; assay: TH immunochemistry after 100 μM NMDA exposure
Method: Rat mesencephalic cell cultures were exposed to 100 μM NMDA and incubated as described above in connection with FIG. 16.

[6] = molecular target: T2, dopamine uptake system (Rattus norvegicus, UniProt P23977); assay: Inhibition of tritiated dopamine uptake in rat neostriatal nerve-terminal (synaptosome) preparation; format: biochemical
T2 construct: An in vitro nerve-terminal preparation (symptosome-preparation) was obtained from fresh rat neostriatal brain tissue; from tissue; host or cells: rat neostriatal synaptosomes
Method: An in vitro nerve terminal preparation (synaptosome preparation) was prepared using fresh rat neostriatal tissue.
Transport by dopamine nerve-terminals was estimated by measuring the uptake of tritiated dopamine.

[7] = molecular target: T3, MAO-A (Cavia porcellus, UniProt H0UVA2); assay: MAO-A inhibition in guinea pig hippocampal homogenates in vitro; format: biochemical; design: specific substrates of MAO-A (^14C-serotonin) in guinea pig hippocampal homogenates; from tissue; host or cells: guinea pig hippocampal homogenates; conditions: for reduction in potency compared to selegiline, MAO-A: figure in parentheses, times less potent
T3 sequence (H0UVA2 1-461): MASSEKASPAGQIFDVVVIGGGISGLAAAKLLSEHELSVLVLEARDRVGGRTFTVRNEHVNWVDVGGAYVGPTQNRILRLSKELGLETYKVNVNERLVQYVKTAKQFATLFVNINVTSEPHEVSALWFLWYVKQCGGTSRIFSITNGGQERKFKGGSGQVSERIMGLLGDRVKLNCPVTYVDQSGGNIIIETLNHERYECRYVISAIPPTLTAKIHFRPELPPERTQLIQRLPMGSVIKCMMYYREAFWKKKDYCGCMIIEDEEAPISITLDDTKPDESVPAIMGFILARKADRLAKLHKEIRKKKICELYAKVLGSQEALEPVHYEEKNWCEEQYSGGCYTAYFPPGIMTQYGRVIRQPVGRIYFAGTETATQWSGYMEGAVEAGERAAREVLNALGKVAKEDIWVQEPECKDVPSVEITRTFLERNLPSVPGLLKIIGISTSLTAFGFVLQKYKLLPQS
Description: as §1, §2

[8] = tested on: rat embryonic mesencephalic cells; assay: TH positive cell survival, medium change (glutamate receptor dependent) model of cell death
Method: as §3

[9] = molecular target: T4, MAO-A (Rattus norvegicus, UniProt P21396); assay: MAO-A inhibition in rat brain tissue; format: biochemical; design: from tissue; host or cells: rat cortex mitochondrial-rich fractions
T4 sequence (P21396 1-526): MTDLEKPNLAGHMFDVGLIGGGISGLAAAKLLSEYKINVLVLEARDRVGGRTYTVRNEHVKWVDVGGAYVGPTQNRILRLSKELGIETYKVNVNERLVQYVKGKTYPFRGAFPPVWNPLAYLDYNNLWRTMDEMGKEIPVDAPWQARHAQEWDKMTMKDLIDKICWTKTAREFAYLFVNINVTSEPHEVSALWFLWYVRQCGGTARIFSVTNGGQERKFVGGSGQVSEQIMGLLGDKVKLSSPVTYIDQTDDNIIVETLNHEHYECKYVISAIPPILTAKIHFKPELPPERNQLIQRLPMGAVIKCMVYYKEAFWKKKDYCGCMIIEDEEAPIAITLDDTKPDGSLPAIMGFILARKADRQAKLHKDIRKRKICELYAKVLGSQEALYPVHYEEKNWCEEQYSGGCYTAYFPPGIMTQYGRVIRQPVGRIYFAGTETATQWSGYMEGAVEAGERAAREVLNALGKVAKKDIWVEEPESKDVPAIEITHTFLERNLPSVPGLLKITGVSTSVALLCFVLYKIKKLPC

[10] = molecular target: T3, MAO-A; assay: In vivo MAO-A inhibition in guinea pig cortex (hippocampus) after 5 s.c. treatments; conditions: sc, read-out: inhibition of MAO-A activity
Method: Hippocampal homogenates containing enzyme were prepared, and assays in vitro for MAO-A and MAO-B activity.

T2 sequence (P23977 whole entry): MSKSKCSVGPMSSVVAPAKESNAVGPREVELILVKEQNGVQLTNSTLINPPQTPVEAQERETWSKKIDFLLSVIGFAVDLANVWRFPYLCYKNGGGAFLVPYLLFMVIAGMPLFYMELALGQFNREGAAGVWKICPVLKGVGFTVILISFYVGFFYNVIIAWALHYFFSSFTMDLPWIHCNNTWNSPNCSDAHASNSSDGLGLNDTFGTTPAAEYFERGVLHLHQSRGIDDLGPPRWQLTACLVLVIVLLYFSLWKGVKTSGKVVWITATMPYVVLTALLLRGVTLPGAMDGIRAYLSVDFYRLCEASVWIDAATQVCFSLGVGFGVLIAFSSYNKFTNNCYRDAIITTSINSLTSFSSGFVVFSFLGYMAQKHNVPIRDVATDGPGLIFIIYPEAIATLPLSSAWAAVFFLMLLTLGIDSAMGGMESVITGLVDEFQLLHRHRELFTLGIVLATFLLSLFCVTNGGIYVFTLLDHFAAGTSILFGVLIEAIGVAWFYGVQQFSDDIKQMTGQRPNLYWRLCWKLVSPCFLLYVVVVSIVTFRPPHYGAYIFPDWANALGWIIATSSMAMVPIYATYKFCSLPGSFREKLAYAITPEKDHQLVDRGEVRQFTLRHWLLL

C#CCN(C)CCCOc1ccc(Cl)cc1Cl [clorgyline, reference compound]
neuron protection by measurement of dopamine uptake (FIG. 15) ([1]; 50 μM): protected

C[C@]12N[C@H](Cc3ccccc31)c1ccccc12 [MK-801, reference compound]
neuron protection by measurement of dopamine uptake (FIG. 15) ([1]; 10 μM): protection was also obtained

C#CCN(C)Cc1ccccc1 [Pargyline, pargyline, reference compound]
neuron protection by measurement of dopamine uptake (FIG. 15) ([1]; at the concentrations used (0.5, 5 and 50 μM)): did not appear to offer any protection

COCCOC(=O)C1=C(C)NC(C)=C(C(=O)OC(C)C)C1c1cccc([N+](=O)[O-])c1 (stereo not shown) [Nimodipine]
incidence of cerebral infarction [2]: lower by one third

C#CCNC(C)Cc1ccccc1 (single isomer, unassigned) [S(+)DMS, S(+)-desmethylselegiline]
times less potent than selegiline, brain MAO-B in vivo [3]: about 10 times | IC50 [4]: 1.2 µM | reduction in potency compared to selegiline, MAO-B, Guinea Pig Hippocampal Cortex [4]: 1200 nM (1200) | inhibition at 0.3 µM ([4]; read-out: MAO-B % Inhibition 0 ± SEM, Concentration 300 nM): 18.7 ± 2.1% | inhibition at 3 µM ([4]; read-out: MAO-B % Inhibition 0 ± SEM, Concentration 3 μM): 77.1 ± 6% | TH positive cells, % control ([5]; 0.5 μM, Mean): 182.3 % control | TH positive cells, cells/cm^2 ([5]; 0.5 μM, Mean): 171.67 cells/cm^2 | TH positive cells, % control ([5]; 0.5 μM, single sample): 135.4 % control and 223.0 % control and 188.5 % control | TH positive cells, cells/cm^2 ([5]; 0.5 μM, single sample): 127.5 cells/cm^2 and 210 cells/cm^2 and 177.5 cells/cm^2 | TH positive cells, % control ([5]; 5.0 μM, Mean): 197.8 % control | TH positive cells, cells/cm^2 ([5]; 5.0 μM, Mean): 186.25 cells/cm^2 | TH positive cells, % control ([5]; 5.0 μM, single sample): 204.4 % control and 199.1 % control and 183.2 % control | TH positive cells, cells/cm^2 ([5]; 5.0 μM, single sample): 192.5 cells/cm^2 and 187.5 cells/cm^2 and 172.5 cells/cm^2 | TH positive cells, % control ([5]; 50 μM, Mean): 276.1 % control | TH positive cells, cells/cm^2 ([5]; 50 μM, Mean): 260 cells/cm^2 | TH positive cells, % control ([5]; 50 μM, single sample): 315.9 % control and 215.0 % control and 337.2 % control and 236.3 % control | TH positive cells, cells/cm^2 ([5]; 50 μM, single sample): 297.5 cells/cm^2 and 202.5 cells/cm^2 and 317.5 cells/cm^2 and 222.5 cells/cm^2 | times more potent than either selegiline or R(−)DMS in inhibiting dopamine uptake [6]: 4-5 times | MAO-A % Reduction 0 ± SEM ([7]; Concentration 1 nM): 92.7 ± 2.5% | MAO-A % Reduction 0 ± SEM ([7]; Concentration 10 nM): 99.6 ± 0.35% | MAO-A % Reduction 0 ± SEM ([7]; Concentration 1 μM): 3.3 + 1.5% | MAO-A % Reduction 0 ± SEM ([7]; Concentration 3 μM): 4.3 ± 1.0% | MAO-A % Reduction 0 ± SEM ([7]; Concentration 10 μM): 10.5 ± 1.47% | MAO-A % Reduction 0 ± SEM ([7]; Concentration 100 μM): 48.4 ± 1.8% | reduction in potency compared to selegiline, MAO-A [7]: 40 | TH positive cells, % control ([8]; 0.5 μM, Mean): 143.5 % control | TH positive cells, cells/cm^2 ([8]; 0.5 μM, Mean): 403.1 cells/cm^2 | TH positive cells, % control ([8]; 0.5 μM, single sample): 152.7 % control and 125.2 % control | TH positive cells, cells/cm^2 ([8]; 0.5 μM, single sample): 402.5 cells/cm^2 and 330.0 cells/cm^2 and 477.5 cells/cm^2 | TH positive cells, % control ([8]; 5.0 μM, Mean): 130.6 % control | TH positive cells, cells/cm^2 ([8]; 5.0 μM, Mean): 344.4 cells/cm^2 | TH positive cells, % control ([8]; 5.0 μM, single sample): 129.9 % control and 135.6 % control and 123.3 % control and 133.7 % control | TH positive cells, cells/cm^2 ([8]; 5.0 μM, single sample): 342.5 cells/cm^2 and 357.5 cells/cm^2 and 325.0 cells/cm^2 and 352.5 cells/cm^2 | TH positive cells, % control ([8]; 50 μM, Mean): 109.8 % control | TH positive cells, cells/cm^2 ([8]; 50 μM, Mean): 289.4 cells/cm^2 | TH positive cells, % control ([8]; 50 μM, single sample): 116.6 % control and 94.8 % control and 118.5 % control and 109.1 % control | TH positive cells, cells/cm^2 ([8]; 50 μM, single sample): 307.5 cells/cm^2 and 250.0 cells/cm^2 and 312.5 cells/cm^2 and 287.5 cells/cm^2 | Dopamine uptake, % control ([1]; 0.5 μM, Mean): 167.2 % control | Dopamine uptake, counts/min ([1]; 0.5 μM, Mean): 35115.5 counts/min | Dopamine uptake, % control ([1]; 0.5 μM, single sample): 170.6 % control and 152.8 % control and 157.4 % control and 188.2 % control | Dopamine uptake, counts/min ([1]; 0.5 μM, single sample): 35830 counts/min and 32074 counts/min and 33042 counts/min and 39516 counts/min | Dopamine uptake, % control ([1]; 5.0 μM, Mean): 180.5 % control | Dopamine uptake, counts/min ([1]; 5.0 μM, Mean): 37889.75 counts/min | Dopamine uptake, % control ([1]; 5.0 μM, single sample): 171.3 % control and 173.7 % control and 181.7 % control and 195.1 % control | Dopamine uptake, counts/min ([1]; 5.0 μM, single sample): 35976 counts/min and 36476 counts/min and 38143 counts/min and 40964 counts/min | Dopamine uptake, % control ([1]; 50 μM, Mean): 157.3 % control | Dopamine uptake, counts/min ([1]; 50 μM, Mean): 33016.75 counts/min | Dopamine uptake, % control ([1]; 50 μM, single sample): 123.8 % control and 177.7 % control and 146.3 % control and 181.1 % control | Dopamine uptake, counts/min ([1]; 50 μM, single sample): 26002 counts/min and 37320 counts/min and 30725 counts/min and 38020 counts/min

C#CCNC(C)Cc1ccccc1 (single isomer, unassigned) [R(−)DMS, R(−)-desmethylselegiline]
IC50 [9]: 70 µM | times less potent than selegiline in inhibiting MAO-A ([9]; in vitro, rat brain tissue): approximately 39 times | times less potent than selegiline, brain MAO-B in vivo [3]: about 10 times | IC50 [4]: 0.06 µM | reduction in potency compared to selegiline, MAO-B, Guinea Pig Hippocampal Cortex [4]: 60 nM (60) | IC50 [7]: 50 µM | MAO-A % Reduction 0 ± SEM ([7]; Concentration 300 nM): 4.8 ± 2.1% | MAO-A % Reduction 0 ± SEM ([7]; Concentration 1 μM): 4.2 ± 1.5% | MAO-A % Reduction 0 ± SEM ([7]; Concentration 3 μM): 10.5 ± 2.0% | MAO-A % Reduction 0 ± SEM ([7]; Concentration 10 μM): 19.0 ± 1.3% | MAO-A % Reduction 0 ± SEM ([7]; Concentration 100 μM): 64.2 ± 1.5% | MAO-A % Reduction 0 ± SEM ([7]; Concentration 1 mM): 96.5 + 1.2% | reduction in potency compared to selegiline, MAO-A [7]: 20 | inhibition at 3 mg/kg [10]: 29.8% | neuron protection by measurement of dopamine uptake (FIG. 15) ([1]; 5 μM): neuron protection | more axonal growth and terminal axonal survival compared to untreated control cells ([1]; 10 μM, medium change model): 40% | neuron protection by measurement of dopamine uptake (FIG. 15) ([1]; 50 μM): neuron protection
